# Reference: ChEMBL document CHEMBL4382242, “Novel racemosin B derivatives as new therapeutic agents for aggressive breast cancer” (Bioorg Med Chem, 2018)
# Calls of active or inactive are those of the source. No cut-off for these calls is given here.
# System: HEL
# Experiment: Growth inhibition of HEL cells after 72 hrs by MTT assay
# Type: functional, cell-based
# Details: Homo sapiens
row,Structure (SMILES),IC50 [µM]
1,CN(C)CCNC(=O)c1cc2c3ccccc3[nH]c2c2c1[nH]c1ccc(Br)cc12,3.63

# System: MDA-MB-231
# Experiment: Growth inhibition of human MDA-MB-231 cells at 1 to 5 uM after 72 hrs by MTT assay
# Type: functional, cell-based
# Details: not given
row,Structure (SMILES),growth inhibition (GI)
1,CN(C)CCNC(=O)c1cc2c3ccccc3[nH]c2c2c1[nH]c1ccc(Br)cc12,Active

# System: MDA-MB-231
# Experiment: Cell cycle arrest in human MDA-MB-231 cells assessed as accumulation at G1 phase at 5 uM after 48 hrs by propidium iodide staining based flow cytometry (reference value: 3.19%)
# Type: functional
# Details: not given
row,Structure (SMILES),Activity [%]
1,CN(C)CCNC(=O)c1cc2c3ccccc3[nH]c2c2c1[nH]c1ccc(Br)cc12,48.65

# System: not listed separately
# Experiment: Growth inhibition of human WM35 cells after 72 hrs by MTT assay
# Type: functional
# Details: WM35, 72 h
row,Structure (SMILES),IC50 [µM]
1,CN(C)CCNC(=O)c1cc2c3ccccc3[nH]c2c2c1[nH]c1ccc(Br)cc12,3.81

# System: MDA-MB-231
# Experiment: Cell cycle arrest in human MDA-MB-231 cells assessed as accumulation at G1 phase at 5 uM after 24 hrs by propidium iodide staining based flow cytometry (reference value: 47.9%)
# Type: functional
# Details: not given
row,Structure (SMILES),Activity [%]
1,CN(C)CCNC(=O)c1cc2c3ccccc3[nH]c2c2c1[nH]c1ccc(Br)cc12,47.46

# System: MDA-MB-231
# Experiment: Induction of apoptosis in human MDA-MB-231 cells assessed as decrease in Bcl2 protein expression at 5 uM after 16 hrs by Western blot analysis
# Type: functional, cell-based
# Details: not given
row,Structure (SMILES),Activity
1,CN(C)CCNC(=O)c1cc2c3ccccc3[nH]c2c2c1[nH]c1ccc(Br)cc12,inactive

# System: MDA-MB-231
# Experiment: Induction of apoptosis in human MDA-MB-231 cells assessed as early apoptotic cells at 5 uM after 48 hrs by Annexin V-FITC/propidium iodide staining based flow cytometry (reference value: 5.3%)
# Type: functional
# Details: not given
row,Structure (SMILES),Activity [%]
1,CN(C)CCNC(=O)c1cc2c3ccccc3[nH]c2c2c1[nH]c1ccc(Br)cc12,14.2

# System: MDA-MB-231
# Experiment: Induction of apoptosis in human MDA-MB-231 cells assessed as necrotic cells at 5 uM after 24 hrs by Annexin V-FITC/propidium iodide staining based flow cytometry (reference value: 0.7%)
# Type: functional
# Details: not given
row,Structure (SMILES),Activity [%]
1,CN(C)CCNC(=O)c1cc2c3ccccc3[nH]c2c2c1[nH]c1ccc(Br)cc12,2

# System: MDA-MB-231
# Experiment: Induction of apoptosis in human MDA-MB-231 cells assessed as live cells at 5 uM after 48 hrs by Annexin V-FITC/propidium iodide staining based flow cytometry (reference value: 87.6%)
# Type: functional
# Details: not given
row,Structure (SMILES),Activity [%]
1,CN(C)CCNC(=O)c1cc2c3ccccc3[nH]c2c2c1[nH]c1ccc(Br)cc12,70.8

# System: MDA-MB-231
# Experiment: Induction of apoptosis in human MDA-MB-231 cells assessed as increase in Bax protein expression at 5 uM after 16 hrs by Western blot analysis
# Type: functional, cell-based
# Details: not given
row,Structure (SMILES),Activity
1,CN(C)CCNC(=O)c1cc2c3ccccc3[nH]c2c2c1[nH]c1ccc(Br)cc12,inactive

# System: MDA-MB-231
# Experiment: Inhibition of autophagy in human MDA-MB-231 cells assessed as increase in p62 protein expression at 5 uM after 16 hrs by Western blot analysis
# Type: functional, cell-based
# Details: not given
row,Structure (SMILES),inhibition
1,CN(C)CCNC(=O)c1cc2c3ccccc3[nH]c2c2c1[nH]c1ccc(Br)cc12,Active

# System: MDA-MB-231
# Experiment: Cell cycle arrest in human MDA-MB-231 cells assessed as accumulation at G2/M phase at 5 uM after 24 hrs by propidium iodide staining based flow cytometry (reference value: 18.5%)
# Type: functional
# Details: not given
row,Structure (SMILES),Activity [%]
1,CN(C)CCNC(=O)c1cc2c3ccccc3[nH]c2c2c1[nH]c1ccc(Br)cc12,22.91

# System: not listed separately
# Experiment: Growth inhibition of human WM9 cells after 72 hrs by MTT assay
# Type: functional
# Details: WM9, 72 h
row,Structure (SMILES),IC50 [µM]
1,CN(C)CCNC(=O)c1cc2c3ccccc3[nH]c2c2c1[nH]c1ccc(Br)cc12,2.43

# System: MDA-MB-231
# Experiment: Cell cycle arrest in human MDA-MB-231 cells assessed as accumulation at S phase at 5 uM after 24 hrs by propidium iodide staining based flow cytometry (reference value: 29.76%)
# Type: functional
# Details: not given
row,Structure (SMILES),Activity [%]
1,CN(C)CCNC(=O)c1cc2c3ccccc3[nH]c2c2c1[nH]c1ccc(Br)cc12,29.31

# System: MDA-MB-231
# Experiment: Inhibition of autophagy in human MDA-MB-231 cells assessed as LC3-2 accumulation at 5 uM after 16 hrs by DAPI staining based immunofluorescence assay
# Type: functional, cell-based
# Details: not given
row,Structure (SMILES),inhibition
1,CN(C)CCNC(=O)c1cc2c3ccccc3[nH]c2c2c1[nH]c1ccc(Br)cc12,Active

# System: K562
# Experiment: Growth inhibition of human K562 cells after 72 hrs by MTT assay
# Type: functional, cell-based
# Details: K562, 72 h
row,IC50 [µM],Structure (SMILES)
1,1.56,CN(C)CCNC(=O)c1cc2c3ccccc3[nH]c2c2c1[nH]c1ccc(Br)cc12

# System: MDA-MB-231
# Experiment: Cell cycle arrest in human MDA-MB-231 cells assessed as accumulation at G2/M phase at 5 uM after 48 hrs by propidium iodide staining based flow cytometry (reference value: 17.79%)
# Type: functional
# Details: not given
row,Structure (SMILES),Activity [%]
1,CN(C)CCNC(=O)c1cc2c3ccccc3[nH]c2c2c1[nH]c1ccc(Br)cc12,29.98

# System: 4T1
# Experiment: Growth inhibition of mouse 4T1 cells after 72 hrs by MTT assay
# Type: functional, cell-based
# Details: 4T1, 72 h
row,IC50 [µM],Structure (SMILES)
1,2.77,CN(C)CCNC(=O)c1cc2c3ccccc3[nH]c2c2c1[nH]c1ccc(Br)cc12

# System: MDA-MB-231
# Experiment: Induction of apoptosis in human MDA-MB-231 cells assessed as late apoptotic cells at 5 uM after 48 hrs by Annexin V-FITC/propidium iodide staining based flow cytometry (reference value: 6.5%)
# Type: functional
# Details: not given
row,Structure (SMILES),Activity [%]
1,CN(C)CCNC(=O)c1cc2c3ccccc3[nH]c2c2c1[nH]c1ccc(Br)cc12,5.5

# System: MDA-MB-231
# Experiment: Induction of apoptosis in human MDA-MB-231 cells assessed as necrotic cells at 5 uM after 48 hrs by Annexin V-FITC/propidium iodide staining based flow cytometry (reference value: 0.7%)
# Type: functional
# Details: not given
row,Structure (SMILES),Activity [%]
1,CN(C)CCNC(=O)c1cc2c3ccccc3[nH]c2c2c1[nH]c1ccc(Br)cc12,9.6

# Biological target: Serine/threonine-protein kinase mTOR (Homo sapiens) (UniProt P42345)
# Experiment: Inhibition of mTOR phosphorylation in human MDA-MB-231 cells at 5 uM after 16 hrs by Western blot analysis
# Type: cell-based
# Details: not given
row,inhibition,Structure (SMILES)
1,Active,CN(C)CCNC(=O)c1cc2c3ccccc3[nH]c2c2c1[nH]c1ccc(Br)cc12

# System: MCF7
# Experiment: Growth inhibition of human MCF7 cells after 72 hrs by MTT assay
# Type: functional, cell-based
# Details: MCF7, 72 h
row,IC50 [µM],Structure (SMILES)
1,2,CN(C)CCNC(=O)c1cc2c3ccccc3[nH]c2c2c1[nH]c1ccc(Br)cc12

# System: MDA-MB-231
# Experiment: Induction of apoptosis in human MDA-MB-231 cells assessed as early apoptotic cells at 5 uM after 24 hrs by Annexin V-FITC/propidium iodide staining based flow cytometry (reference value: 3.7%)
# Type: functional
# Details: not given
row,Structure (SMILES),Activity [%]
1,CN(C)CCNC(=O)c1cc2c3ccccc3[nH]c2c2c1[nH]c1ccc(Br)cc12,10.8

# System: MDA-MB-231
# Experiment: Induction of apoptosis in human MDA-MB-231 cells assessed as live cells at 5 uM after 24 hrs by Annexin V-FITC/propidium iodide staining based flow cytometry (reference value: 90.8%)
# Type: functional
# Details: not given
row,Structure (SMILES),Activity [%]
1,CN(C)CCNC(=O)c1cc2c3ccccc3[nH]c2c2c1[nH]c1ccc(Br)cc12,82.2

# System: MDA-MB-231
# Experiment: Induction of morphological changes in human MDA-MB-231 cells assessed as large vacuole formation at 5 uM after 24 hrs
# Type: functional, cell-based
# Details: not given
row,Structure (SMILES),Activity
1,CN(C)CCNC(=O)c1cc2c3ccccc3[nH]c2c2c1[nH]c1ccc(Br)cc12,Active

# System: MDA-MB-231
# Experiment: Growth inhibition of human MDA-MB-231 cells after 72 hrs by MTT assay
# Type: functional, cell-based
# Details: MDA-MB-231, 72 h
row,IC50 [µM],Structure (SMILES)
1,1.06,CN(C)CCNC(=O)c1cc2c3ccccc3[nH]c2c2c1[nH]c1ccc(Br)cc12

# System: MDA-MB-231
# Experiment: Cell cycle arrest in human MDA-MB-231 cells assessed as accumulation at S phase at 5 uM after 48 hrs by propidium iodide staining based flow cytometry (reference value: 31.71%)
# Type: functional
# Details: not given
row,Structure (SMILES),Activity [%]
1,CN(C)CCNC(=O)c1cc2c3ccccc3[nH]c2c2c1[nH]c1ccc(Br)cc12,21.38

# System: MDA-MB-231
# Experiment: Induction of apoptosis in human MDA-MB-231 cells assessed as late apoptotic cells at 5 uM after 24 hrs by Annexin V-FITC/propidium iodide staining based flow cytometry (reference value: 4.8%)
# Type: functional
# Details: not given
row,Structure (SMILES),Activity [%]
1,CN(C)CCNC(=O)c1cc2c3ccccc3[nH]c2c2c1[nH]c1ccc(Br)cc12,5

# System: MDA-MB-231
# Experiment: Induction of apoptosis in human MDA-MB-231 cells assessed as increase in Cyclin-B1 protein expression at 5 uM after 16 hrs by Western blot analysis
# Type: functional, cell-based
# Details: not given
row,Structure (SMILES),Activity
1,CN(C)CCNC(=O)c1cc2c3ccccc3[nH]c2c2c1[nH]c1ccc(Br)cc12,inactive
